The values below come from US5362752A, “Chemical compounds” (Merck & Co., Inc., priority 1993, dated 1994).

This assay concerns the target T1, squalene synthase (Homo sapiens, UniProt P37268).
T1 construct: PREPARATION OF HUMAN HEPG2 CELL ENZYME; host or cells: HepG2 (human hepatoblastoma), sonicated cell extract
T1 sequence (P37268 1-417): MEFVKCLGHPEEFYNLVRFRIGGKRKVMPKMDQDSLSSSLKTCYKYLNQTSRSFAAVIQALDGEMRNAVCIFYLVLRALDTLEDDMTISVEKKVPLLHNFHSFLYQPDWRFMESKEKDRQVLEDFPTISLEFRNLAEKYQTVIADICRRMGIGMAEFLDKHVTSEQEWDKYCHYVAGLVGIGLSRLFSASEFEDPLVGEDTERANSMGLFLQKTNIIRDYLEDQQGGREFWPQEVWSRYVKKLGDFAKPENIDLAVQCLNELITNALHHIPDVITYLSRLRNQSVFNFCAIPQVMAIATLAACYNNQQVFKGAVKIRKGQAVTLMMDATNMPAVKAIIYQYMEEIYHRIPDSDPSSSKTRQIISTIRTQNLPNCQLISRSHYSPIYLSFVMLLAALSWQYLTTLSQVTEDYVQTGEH
As to the kind of experiment: Squalene synthase assay with human HepG2 cell enzyme. It is filed as biochemical. Conditions: HepG2 enzyme preparation, 3 μM 3H-farnesyl pyrophosphate substrate, 30° C., 20 minutes; read-out: IC50 (squalene synthase inhibition). The protocol:
The intrinsic squalene synthase inhibitory activity of the compounds of this invention was measured by the standard in vitro protocol described below:
PREPARATION OF HUMAN HEPG2 CELL ENZYME
1. Source: HEPG2 CELL LINE (Liver, hepatoblastoma, Human) ATCC No. HB 8065
Culture Medium: Minimum essential medium (MEM) with non-essential amino acids, sodium pyruvate, and 10% fetal bovine serum. The medium was changed twice weekly. […] The growth medium is prepared as listed below.
48 hrs. prior to harvest, switch cells grown in MEM with Fetal Calf serum to MEM with 10% delipidated serum.
Remove medium, wash with PBS, add fresh trypsin (0.25%)-EDTA (0.02%) with Hank's Balanced Salt solution, rinse and remove. Incubate flask at 37° C. until cells detach. Add 6 mL of MEM medium per flask to suspend cells and combine into centrifuge tube. […]
For each reaction, 55 μL of buffer mixture was taken with 5 μL of an inhibitor solution in DMSO and 10 μL of diluted enzyme (1 to 250 as described in the enzyme preparation; the final protein concentration of enzyme in the assay is 2 μg per mL.). […] 150 μL of heptane layer was then removed into a 96 deep well plate and mixed with 150 μL of scintillation fluid and the radioactivity was determined by liquid scintillation counting. […]
IC50 values were determined by plotting the log of the concentration of the test compound versus the percentage inhibition. […]

Some results are limits rather than exact numbers.

One may read the IC50 as the concentration that gives 50% inhibition. As for `C=C(CCC(=O)C(O)C(OC(=O)/C=C/C(C)CC(C)CC)C(=O)O)C(OC(C)=O)C(C)Cc1ccccc1` (stereo not shown) [Composition A], the IC50 is less than 2000 nM.
